Assay results: ChEMBL document CHEMBL1152948, “Antimycobacterial activity of new 3,5-disubstituted 1,3,4-oxadiazol-2(3H)-one derivatives. Molecular modeling investigations” (2009)
In brackets after ≈: the same amount, converted by molar mass. Activity calls are given as the source filed them. The calls are words filed in the database; no cut-off is given here.

Assays:
[1] = system: Mycobacterium tuberculosis; test: Antitubercular activity against Mycobacterium tuberculosis H37Rv by microdilution resazurin assay; assay type: functional
[2] = system: Mycobacterium tuberculosis; test: Antitubercular activity against Mycobacterium tuberculosis H37Rv at 5 ug/disk by microdilution resazurin assay; assay type: functional, organism-based
[3] = system: Mycobacterium tuberculosis; test: Antitubercular activity against Mycobacterium tuberculosis H37Rv at 30 ug/disk by microdilution resazurin assay; assay type: functional, organism-based

Compound | MIC [1] [µg/mL] | Activity [2] | Activity [3]
NNC(=O)c1ccncc1 [ISONIAZID] | 0.5 (≈ 3.65 µM) | Active | 
CN(Cc1cccc(Cl)c1)Cn1nc(-c2ccncc2)oc1=O | 8 (≈ 24.2 µM) |  | 
CC1CCCCN1Cn1nc(-c2ccccn2)oc1=O (configuration not stated) | 4 (≈ 14.6 µM) |  | 
CN(Cc1ccc(Br)cc1)Cn1nc(-c2ccncc2)oc1=O | 4 (≈ 10.7 µM) |  | 
CN(Cc1ccccc1)Cn1nc(-c2ccncc2)oc1=O | 8 (≈ 27 µM) |  | 
CC1CCCN(Cn2nc(-c3ccccc3)oc2=O)C1 (configuration not stated) | 32 (≈ 117 µM) |  | 
O=c1oc(-c2ccccn2)nn1CN1CCCCC1 | 4 (≈ 15.4 µM) |  | 
CC1CCCCN1Cn1nc(-c2cccnc2)oc1=O (configuration not stated) | 32 (≈ 117 µM) |  | 
O=c1[nH]nc(-c2ccccc2)o1 | 32 (≈ 197 µM) |  | 
O=c1oc(-c2ccccc2)nn1CN1CCCCC1 | 32 (≈ 123 µM) |  | 
CN(Cc1cccc(F)c1)Cn1nc(-c2ccncc2)oc1=O | 8 (≈ 25.5 µM) |  | 
CO[C@H]1/C=C/O[C@@]2(C)Oc3c(C)c(O)c4c(O)c(c(/C=N/N5CCN(C)CC5)c(O)c4c3C2=O)NC(=O)/C(C)=C\C=C\[C@H](C)[C@H](O)[C@@H](C)[C@@H](O)[C@@H](C)[C@H](OC(C)=O)[C@@H]1C [RIFAMPIN] | 1 (≈ 1.22 µM) |  | Active
CC1CCCN(Cn2nc(-c3ccccn3)oc2=O)C1 (configuration not stated) | 4 (≈ 14.6 µM) |  | 
O=c1[nH]nc(-c2ccncc2)o1 [NEOVADRINE] | 4 (≈ 24.5 µM) |  | 
CN(Cc1ccc(Cl)cc1Cl)Cn1nc(-c2ccncc2)oc1=O | 8 (≈ 21.9 µM) |  | 
Cc1ccc(CN(C)Cn2nc(-c3ccncc3)oc2=O)cc1 | 4 (≈ 12.9 µM) |  | 
CN(Cc1cccc(Br)c1)Cn1nc(-c2ccncc2)oc1=O | 4 (≈ 10.7 µM) |  | 
CN(Cc1ccccc1Cl)Cn1nc(-c2ccncc2)oc1=O | 8 (≈ 24.2 µM) |  | 

Compound | MIC [1] [µg/mL] | Activity [2] | Activity [3]
CN(Cc1ccc(Cl)cc1)Cn1nc(-c2ccncc2)oc1=O | 8 (≈ 24.2 µM) |  | 
O=c1oc(-c2cccnc2)nn1CN1CCCCC1 | 32 (≈ 123 µM) |  | 
CC1CCN(Cn2nc(-c3ccccc3)oc2=O)CC1 | 32 (≈ 117 µM) |  | 
CC1CCCN(Cn2nc(-c3cccnc3)oc2=O)C1 (configuration not stated) | 32 (≈ 117 µM) |  | 
O=c1oc(-c2cnccn2)nn1CN1CCCCC1 | > 64 |  | 
CN(Cc1cccc2ccccc12)Cn1nc(-c2ccncc2)oc1=O | 8 (≈ 23.1 µM) |  | 
O=c1[nH]nc(-c2ccccn2)o1 | 4 (≈ 24.5 µM) |  | 
O=c1[nH]nc(-c2cnccn2)o1 | > 64 |  | 
CC1CCCCN1Cn1nc(-c2ccccc2)oc1=O (configuration not stated) | 32 (≈ 117 µM) |  | 
CC1CCN(Cn2nc(-c3cnccn3)oc2=O)CC1 | > 64 |  | 
CC1CCN(Cn2nc(-c3ccccn3)oc2=O)CC1 | 4 (≈ 14.6 µM) |  | 
CC1CCCN(Cn2nc(-c3cnccn3)oc2=O)C1 (configuration not stated) | > 64 |  | 
CC1CCN(Cn2nc(-c3cccnc3)oc2=O)CC1 | > 64 |  | 
O=c1[nH]nc(-c2cccnc2)o1 | 32 (≈ 196 µM) |  | 
CN(Cc1ccccc1F)Cn1nc(-c2ccncc2)oc1=O | 4 (≈ 12.7 µM) |  | 
CN(Cc1ccccc1Br)Cn1nc(-c2ccncc2)oc1=O | 8 (≈ 21.3 µM) |  | 
CN(Cc1ccc(F)cc1)Cn1nc(-c2ccncc2)oc1=O | 4 (≈ 12.7 µM) |  | 
